Experimental data as given in ChEMBL document CHEMBL1155157, “Fosamprenavir plus ritonavir increases plasma ketoconazole and ritonavir exposure, while amprenavir exposure remains unchanged” (Antimicrob Agents Chemother, 2007).

What was measured:
[1] = AUC (0 to tau) in human plasma at 200 mg qd for 4 days; format: ADME, organism-based
[2] = Cmax in human plasma at 200 mg qd for 4 days; format: ADME, organism-based; set-up: dose 200 mg

With `CC(=O)N1CCN(c2ccc(OCC3COC(Cn4ccnc4)(c4ccc(Cl)cc4Cl)O3)cc2)CC1` (configuration not stated) [KETOCONAZOLE] as the compound, how does the AUC tau at 96 h [1] read?
The AUC tau at 96 h was 16600 ng·h/mL.

What about the Cmax [2] of the same compound?
The Cmax was 3770 ng/mL.
